Results reported in PubChem BioAssay AID328 (DTP/NCI, 2004).
Where “and” joins values, the source holds several entries; their conditions need not be identical. Equal values may be shown once. Inconclusive results and toxic doses are left out. The calls were made as follows: active = survival T/C of 150% or more; inactive = T/C below 125% in these data.

Assays:
[1] = system: BDF1 mice, P388 leukemia ip; assay: NCI In Vivo Anticancer Drug Screen. Data for tumor model P388 Leukemia (intraperitoneal) in B6D2F1 (BDF1) mice; details: endpoint: mean survival time, schedule: Q01DX009 (ip), higher = longer survival
Outline: (§1)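 Transplantable tumour in mice; compound vs vehicle dosing; survival scored; ratio of treated to control reported.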

[2] = system: BDF1 mice, P388 leukemia ip, median survival T/C; assay: as above; details: endpoint: median survival time, higher = longer survival
Outline: as §1

Measured: T/C

CNC(C)(C)C(SSSC(c1ccc(Cl)cc1)C(C)(C)NC)c1ccc(Cl)cc1 (stereo not given)
inactive: [1]; dose: 6.25 mg/kg/injection, vehicle: saline with Tween-80 95 % of control | [1]; dose: 12.5 mg/kg/injection, vehicle: saline with Tween-80 114 % of control | [1]; dose: 25.0 mg/kg/injection, vehicle: saline with Tween-80 103 % of control | [2]; dose: 12.5 mg/kg/injection, schedule: Q04DX003 (ip), vehicle: saline with Tween-80 101 % of control | [2]; dose: 25.0 mg/kg/injection, schedule: Q01DX009 (ip), vehicle: saline with Tween-80 102 % of control | [2]; dose: 25.0 mg/kg/injection, schedule: Q04DX003 (ip), vehicle: saline with Tween-80 100 % of control | [2]; dose: 50.0 mg/kg/injection, schedule: Q01DX009 (ip), vehicle: saline with Tween-80 94 % of control | [2]; dose: 50.0 mg/kg/injection, schedule: Q04DX003 (ip), vehicle: saline with Tween-80 95 % of control

CN(C)Cc1ccc(C(C)(C)C)cc1
inactive: [1]; dose: 3.12 mg/kg/injection, vehicle: water 108 % of control | [1]; dose: 6.25 mg/kg/injection, vehicle: water 100 % of control | [1]; dose: 12.5 mg/kg/injection, vehicle: water 102 % of control | [1]; dose: 25.0 mg/kg/injection, vehicle: water 96 % of control | [1]; dose: 100.0 mg/kg/injection, vehicle: water 95 % of control | [2]; dose: 6.25 mg/kg/injection, schedule: Q04DX003 (ip), vehicle: water 98 % of control | [2]; dose: 12.5 mg/kg/injection, schedule: Q04DX003 (ip), vehicle: water 112 % of control | [2]; dose: 25.0 mg/kg/injection, schedule: Q04DX003 (ip), vehicle: water 106 % of control | [2]; dose: 50.0 mg/kg/injection, schedule: Q04DX003 (ip), vehicle: water 106 % of control | [2]; dose: 100.0 mg/kg/injection, schedule: Q04DX003 (ip), vehicle: water 99 % of control and 100 % of control

C=C(C)C12OC3(c4ccccc4)OC1C1C4OC4(CO)C(O)C4(O)C(=O)C(C)=CC4C1(O3)C(C)C2OC(=O)/C=C/C=C/c1ccccc1 (stereo not given)
inactive: [2]; dose: 0.01 mg/kg/injection, schedule: Q01DX009 (ip), vehicle: saline + alcohol 115 % of control | [2]; dose: 0.02 mg/kg/injection, schedule: Q01DX009 (ip), vehicle: saline + alcohol 94 % of control | [2]; dose: 0.03 mg/kg/injection, schedule: Q01DX009 (ip), vehicle: saline + alcohol 123 % of control | [2]; dose: 3.1 micrograms/kg/injection, schedule: Q01DX009 (ip), vehicle: saline + alcohol 123 % of control | [2]; dose: 6.0 micrograms/kg/injection, schedule: Q01DX009 (ip), vehicle: saline + alcohol 101 % of control | [2]; dose: 6.3 micrograms/kg/injection, schedule: Q01DX009 (ip), vehicle: saline + alcohol 104 % of control | [2]; dose: 12.5 micrograms/kg/injection, schedule: Q01DX009 (ip), vehicle: saline + alcohol 123 % of control | [2]; dose: 25.0 micrograms/kg/injection, schedule: Q01DX009 (ip), vehicle: gum acacia 121 % of control | [2]; dose: 25.0 micrograms/kg/injection, schedule: Q01DX009 (ip), vehicle: saline + alcohol 124 % of control | [2]; dose: 50.0 micrograms/kg/injection, schedule: Q01DX009 (ip), vehicle: gum acacia 90 % of control | [2]; dose: 50.0 micrograms/kg/injection, schedule: Q01DX009 (ip), vehicle: saline with Tween-80 92 % of control | [2]; dose: 100.0 micrograms/kg/injection, schedule: Q01DX009 (ip), vehicle: saline with Tween-80 88 % of control
active: [2]; dose: 0.5 mg/kg/injection, schedule: Q01DX009 (ip), vehicle: saline + alcohol 156 % of control | [2]; dose: 25.0 micrograms/kg/injection, schedule: Q01DX009 (ip), vehicle: saline with Tween-80 200 % of control | [2]; dose: 50.0 micrograms/kg/injection, schedule: Q01DX009 (ip), vehicle: saline + alcohol 155 % of control

Clc1c(CBr)c(Cl)c(CBr)c(Cl)c1CBr
inactive: [2]; dose: 12.5 mg/kg/injection, schedule: Q01DX009 (ip), vehicle: Klucel (hydroxypropylcellulose) (HPC) 113 % of control | [2]; dose: 25.0 mg/kg/injection, schedule: Q01DX009 (ip), vehicle: Klucel (hydroxypropylcellulose) (HPC) 122 % of control

CC(=O)Nc1ccc(S(=O)(=O)NNC(=O)C(=O)Nc2cccc(Cl)c2)cc1
inactive: [2]; dose: 50.0 mg/kg/injection, schedule: Q01DX005 (ip), vehicle: saline with Tween-80 96 % of control | [2]; dose: 100.0 mg/kg/injection, schedule: Q01DX005 (ip), vehicle: saline with Tween-80 89 % of control | [2]; dose: 200.0 mg/kg/injection, schedule: Q01DX005 (ip), vehicle: saline with Tween-80 96 % of control

C[N+](C)(Cn1nc(Cl)c2cc([N+](=O)[O-])ccc21)Cn1nc(Cl)c2cc([N+](=O)[O-])ccc21
inactive: [2]; dose: 100.0 mg/kg/injection, schedule: Q04DX003 (ip), vehicle: saline with Tween-80 115 % of control
active: [2]; dose: 200.0 mg/kg/injection, schedule: Q04DX003 (ip), vehicle: saline with Tween-80 153 % of control
